From US9650390B2, “Water-soluble taxane derivatives and uses thereof” (priority 2014, dated 2017)

Test system: human ovarian cancer SK-OV-3
Details: 24 mg/kg, D0-4 IV; for Body weight change (%) D4: nude mice; for T/C (%) D22 / Tumor volume (mm^3) (D22) / Tumor volume (mm^3) (D0) / Tumor inhibitory percent (%) D22: SK-OV-3 xenograft in nude mice; for Tumor volume (mm^3) (D0): baseline at grouping (D0); for Tumor inhibitory percent (%) D22: P = 0.000 vs control

CCN(CC)CC[C@H](F)C(=O)O[C@@H](C(=O)O[C@H]1C[C@@]2(O)[C@@H](OC(=O)c3ccccc3)[C@@H]3[C@]4(OC(C)=O)CO[C@@H]4C[C@H](O)[C@@]3(C)C(=O)[C@H](OC(C)=O)C(=C1C)C2(C)C)[C@@H](NC(=O)c1ccccc1)c1ccccc1.O=C(O)/C=C/C(=O)O [Compound C19, 2′-O-[4-N,N-diethylamino-2(S)-fluorobutyryl]paclitaxel fumarate]
Body weight change (%) D4: −8.1% | T/C (%) D22: −44% | Tumor volume (mm^3) (D22): 55.7 ± 10.1 mm^3 | Tumor volume (mm^3) (D0): 133.6 ± 9.4 mm^3

CCN(C)CC[C@@H](F)C(=O)O[C@@H](C(=O)O[C@H]1C[C@@]2(O)[C@@H](OC(=O)c3ccccc3)[C@@H]3[C@]4(OC(C)=O)CO[C@@H]4C[C@H](O)[C@@]3(C)C(=O)[C@H](OC(C)=O)C(=C1C)C2(C)C)[C@@H](NC(=O)c1ccccc1)c1ccccc1.CS(=O)(=O)O [Compound C18, 2′-O-[4-N-methyl-N-ethylamino-2(R)-fluorobutyryl]paclitaxel methanesulfonate]
Body weight change (%) D4: −7.0% | T/C (%) D22: −53% | Tumor volume (mm^3) (D22): 55.7 ± 10.6 mm^3 | Tumor volume (mm^3) (D0): 133.6 ± 9.4 mm^3

CC(=O)O[C@H]1C(=O)[C@@]2(C)[C@H]([C@H](OC(=O)c3ccccc3)[C@]3(O)C[C@H](OC(=O)[C@H](OC(=O)C(F)CCN(C)C(C)C)[C@@H](NC(=O)c4ccccc4)c4ccccc4)C(C)=C1C3(C)C)[C@]1(OC(C)=O)CO[C@@H]1C[C@@H]2O.Cl (stereo partly drawn) [Compound C20, 2′-O-[4-N-methyl-N-isopropylamino-2(R,S)-fluorobutyryl]paclitaxel hydrochloride]
Body weight change (%) D4: −10.3% | T/C (%) D22: −38% | Tumor volume (mm^3) (D22): 60.4 ± 12.3 mm^3 | Tumor inhibitory percent (%) D22: 98% | Tumor volume (mm^3) (D0): 127.9 ± 11.4 mm^3

CC(=O)O[C@H]1C(=O)[C@@]2(C)[C@H]([C@H](OC(=O)c3ccccc3)[C@]3(O)C[C@H](OC(=O)[C@H](OC(=O)C(CCN(C)C)C(F)F)[C@@H](NC(=O)c4ccccc4)c4ccccc4)C(C)=C1C3(C)C)[C@]1(OC(C)=O)CO[C@@H]1C[C@@H]2O.Cl (stereo partly drawn) [Compound C22, 2′-O-[4-N,N-dimethylamino-2(R,S)-2-difluoromethylbutyryl]paclitaxel hydrochloride]
Body weight change (%) D4: −8.4% | T/C (%) D22: −35% | Tumor volume (mm^3) (D22): 61.2 ± 13.5 mm^3 | Tumor inhibitory percent (%) D22: 135% | Tumor volume (mm^3) (D0): 133.4 ± 12.6 mm^3

CC(=O)OC1C(=O)C2(C)C(O)CC3OCC3(OC(C)=O)C2C(OC(=O)c2ccccc2)C2(O)CC(OC(=O)C(OC(=O)C(F)CC(C)N(C)C)C(NC(=O)c3ccccc3)c3ccccc3)C(C)=C1C2(C)C.O=C(O)C=CC(=O)O [Compound C23, 2′-O-[4-N,N-dimethylamino-2(R)-fluorovaleryl]paclitaxel maleate]
Body weight change (%) D4: −9.4% | T/C (%) D22: −23% | Tumor volume (mm^3) (D22): 70.8 ± 16.8 mm^3 | Tumor inhibitory percent (%) D22: 60% | Tumor volume (mm^3) (D0): 135.8 ± 14.7 mm^3
